Entries after “also recorded” stand apart in the source; their conditions may differ. Marks after values point to notes of the source that are not given here.
Experiments:
[1] = system: mdx mouse model of Duchenne Muscular Dystrophy; assay: Whole Body Plethysmography respiration monitoring, mdx mice, 22 weeks daily s.q. dosing; type: in vivo
Experimental: Animals. Male C57BL/10SnJ, hereafter referred to as wild-type (WT), and male mdx C57B1/10ScSn-Dmdmdx mice were used in the study. All protocols were approved by the University of Michigan (UM) UCUCA and all studies were performed in facilities run by the University of Michigan Unit of Laboratory Animal Medicine. […] Mice were purchased from Jackson Laboratories and aged in UM facilities. All ages given are ±2 weeks. Mice were randomized into groups upon receipt from Jackson Laboratories in order to minimize the need for additional cages. […] All compounds were administered subcutaneously.
Respiration was monitored using a Buxco Whole Body Plethysmography (WBP) monitoring chambers for mouse Cat. No. PLY4211 (Buxco Research Systems, Wilmington, N.C.) according to the manufacturer's instructions. In this protocol animals are unrestrained and un-anesthetized. Monitoring was performed in the room in which the animals were housed. The mice were monitored for 2 months prior to initiation of treatment to acclimate the mice to the procedure and establish baseline respiratory parameters done with the last weeks reading prior to initiation of dosing. Mice were randomized into groups based on tidal volume measurements. Upon initiation of dosing, mice were monitored every 2 weeks. Mice were placed in monitoring chambers and allowed to acclimate for 15 minutes prior to recording respiratory parameters. Respiration was then monitored for 10 minutes. Each mouse was monitored in the same chamber for each reading throughout the study to minimize variability.
During acclimation and measurements, the room door was shut and technician movement and room noise was kept to a minimum to allow for complete acclimation. […] Chambers were wiped clean between animals. Data was monitored and collected using FinePoint software (Cat. No. SFT4000) purchased from Buxco Research Systems (Wilmington, N.C.). […] Comparisons between groups of daily, every other day or weekly dosed animals were done by one-way ANOVA using the Neumann-Keuls post-hoc test. Significance was P<0.05. N=10-12 animals per group.
Abbreviations used include the following (units): F, respiration rate (breaths/minute), TV, tidal volume, (ml); TV/BWT, ratio of tidal volume to body weight, (mL/kg); MV, minute volume, (mL/min); Penh, enhanced pause, (no units); Rpef, the ratio of the time from start of expiration to peak expiratory flow to Te (no units); PIF, peak inspiratory flow, (mL sec); PEF, peak expiratory flow, (mL/sec); Te, expiratory time (sec); Ti, inspiratory time, (sec); Tr, relaxation time, (sec).
Respiration was monitored every 2 weeks by WBP.

[2] = system: diaphragm muscle of mdx mice; assay: Diaphragm histology (centralized nuclei, fiber size and density, fibrosis), mdx mice; type: in vivo, mouse; settings: prednisone 1 mg/kg QD s.q., 22 weeks
Experimental: Analysis of centralized nuclei. One marker of degeneration is the amount of compensatory regeneration occurring within the muscle. Since newly regenerating fibers have centrally located nuclei, the percentage of fibers with centralized nuclei (CN) from the diaphragm of each animal was determined (FIG. 2A).
Analysis of fiber size and density. The cross-sectional area of regenerating or recently regenerated fibers is expected to be smaller than that of mature muscle fibers. The cross sectional area of approximately 50 muscle fibers was measured from each mouse (600 fibers/group).
Analysis of fibrosis. Fibrosis was measured as the percentage of […] area/total area in Masson's trichrome stained sections.

[3] = Table 3, prednisone 1 mg/kg daily, 22 wks, mean ± S.D.
[4] = prednisone 1 mg/kg QD s.q., 22 weeks, mean ± S.D.

Structure (SMILES): C[C@]12C=CC(=O)C=C1CC[C@@H]1[C@@H]2C(=O)C[C@@]2(C)[C@H]1CC[C@]2(O)C(=O)CO [Prednisone, prednisone]
- TV, 22 wks [1, 3]: 0.332 ± 0.021 mL
- TV/BW, 22 wks [1, 3]: 9.9 ± 1.2 mL/kg
- increase in TV/BW compared with mdx saline (cause) ([1]; prednisone 1 mg/kg QD s.q., 22 weeks): due to a loss of body weight and not due to improvement in TV
- F (respiration rate) [1, 4]: 328 ± 30 breaths/min
- MV (minute volume) [1, 4]: 107 ± 11^b ml/min
- PEF (peak expiratory flow) [1, 4]: 4.2 ± 0.4^b mL/sec
- PIF (peak inspiratory flow) [1, 4]: 8.3 ± 0.8^c mL/sec
- Penh (enhanced pause) [1, 4]: 0.393 ± 0.080
- Rpef [1, 4]: 0.496 ± 0.085
- TV (tidal volume) [1, 4]: 0.332 ± 0.021^c mL
- Ti (inspiratory time) [1, 4]: 0.068 ± 0.006 s
- Tr (relaxation time) [1, 4]: 0.094 ± 0.018 s
- percentage of fibers with centralized nuclei (CN), diaphragm [2]: nearly the same percentage of fibers with CN as the mdx saline group; also recorded: higher percentage of muscle fibers in the regeneration process than in the P-188 treated groups

Reference: patent US20150190421A1, “POLOXAMERS FOR THE IMPROVEMENT OF RESPIRATORY FUNCTION” (PHRIXUS PHARMACEUTICALS, INC., priority 2012, published 2015)
